# Experimental data taken from ChEMBL document CHEMBL3430912, “GSK Tres Cantos Anti-Kinetoplastid Screening (TCAKS) Data”.
# What was measured:
# Trypanosoma cruzi [1] = test: GSK_TCAKS: pIC50 Trypanosoma cruzi viability assay using beta-GAL activity. This assay was run at single shot at 5uM compound concentration per well. The biological reagents consisted of NIH-3T3 host cells and trypomastigotes parasitic cells; both cell types were set to a 3.3 * 10^5 cells/mL dilution in assay DMEM by means of a CASY cell counter device using a 60um capillary. 6 uL of the mixture were dispensed per well (about 1 * 10^3 host-cells and 1 * 10^3 parasites) with a Multidrop Combi dispenser. […] In all wells, the percentage of DMSO never exceeded 0.5%. Plates incubated for four days at 37C, 5% CO2. The substrate used for the assay fluorescence intensity (FLINT) readout was resorufin-beta-D-galactopiranoside (Sigma-Aldrich) at 5uM per well. It was diluted in PBS supplemented with the soft detergent Igepal (Fluka).; type: functional, organism-based, Mus musculus; conditions: Tulahuen, NIH3T3
# Trypanosoma cruzi [2] = test: (§1) GSK_TCAKS: pIC50 Trypanosoma cruzi Imaging: Infected Cells. […] Cells were then washed once with PBS before infection. T. cruzi trypomastigotes, collected at days 5 to 8 after infection from LLC-MK2 parasite infected cultures, were allowed to swim out for 4h at 37C from a centrifuged pellet (2,500 rpm/10 min/room temperature). Trypomastigotes were then collected and counted in a CASY Cell Counter. Trypomastigotes, in supplemented DMEM, were added to H9c2 cultures in a multiplicity of infection of 1 and incubated for 18 h. Cells were washed once with PBS before incubation of the infected H9c2 monolayer with trypsin (Life-Technologies) to detach cells from the flask. Cells were counted in a CASY Cell Counter using a 150 um capillary and their density set at 5 * 10^4 cells per mL in supplemented assay DMEM. Infected H9c2 were dispensed into 384-well poly-lysine coated assay plates at 50uL per well using a Multidrop Combi dispenser. After seeding them, the plates were incubated at 37C, 5% CO2 for 72h. Cultures were then fixed and stained by addition of 50 uL of a solution containing 8% formaldehyde and 4 uM DRAQ5 DNA dye (BioStatus, UK) per well. […] Five images were collected per well for reliable statistical analysis. Automated image analysis was performed with a script developed on Acapella High Content Imaging and Analysis Software (PerkinElmer). Output: percentage of infected cells per well as a second infection marker.; type: functional, organism-based, Rattus norvegicus; conditions: H9c2, 4 h
# Trypanosoma cruzi [3] = test: GSK_TCAKS: pIC50 Trypanosoma cruzi Imaging: Amastigotes/Cell. […] Cells were then washed once with PBS before infection. T. cruzi trypomastigotes, collected at days 5 to 8 after infection from LLC-MK2 parasite infected cultures, were allowed to swim out for 4h at 37C from a centrifuged pellet (2,500 rpm/10 min/room temperature). Trypomastigotes were then collected and counted in a CASY Cell Counter. Trypomastigotes, in supplemented DMEM, were added to H9c2 cultures in a multiplicity of infection of 1 and incubated for 18 h. Cells were washed once with PBS before incubation of the infected H9c2 monolayer with trypsin (Life-Technologies) to detach cells from the flask. Cells were counted in a CASY Cell Counter using a 150 um capillary and their density set at 5 * 10^4 cells per mL in supplemented assay DMEM. Infected H9c2 were dispensed into 384-well poly-lysine coated assay plates at 50uL per well using a Multidrop Combi dispenser. After seeding them, the plates were incubated at 37C, 5% CO2 for 72h. Cultures were then fixed and stained by addition of 50 uL of a solution containing 8% formaldehyde and 4 uM DRAQ5 DNA dye (BioStatus, UK) per well. […] Five images were collected per well for reliable statistical analysis. Automated image analysis was performed with a script developed on Acapella High Content Imaging and Analysis Software (PerkinElmer). Output: number of amastigotes per cell as infection level measurement.; type: functional, organism-based, Rattus norvegicus; conditions: H9c2, 4 h
# Leishmania donovani [4] = test: (§2) GSK_TCAKS: pIC50 Leishmania donovani Imaging: Infected Macrophages. Assay plates (384-well) were prepared by adding 250nL of compound to each well. For single shot assay, the final compound concentration was 5 uM. […] Automated image analysis was performed with a script developed on Acapella High Content Imaging and Analysis Software (PerkinElmer). Output: Percent of infected macrophage cells were reported for each well.; type: functional, organism-based, Homo sapiens; conditions: THP-1
# Leishmania donovani [5] = test: as §2, with “Amastigotes/Macrophages.” for “Infected Macrophages.”, “Average number” for “Percent”, “amastigotes per” for “infected”, “cell” for “cells”; type: functional, organism-based, Homo sapiens; conditions: THP-1
# [6] = tested on: Trypanosoma brucei brucei; test: GSK_TCAKS: pIC50 Trypanosoma brucei viability assay using fluorescence intensity. Assay plates (1536-well) were prepared by dispensing 25nL of compound solution per well using an Echo acoustic dispenser (Labcyte).; type: functional, organism-based; conditions: Lister 427, 2 h
# [7] = tested on: Trypanosoma brucei brucei; test: GSK_TCAKS: pIC50 Trypanosoma brucei viability assay using luminiscence. Assay plates (1536-well) were prepared. T. brucei cultures were harvested and counted in a CASY cell counter. A parasite suspension was prepared at a final concentration of 5 * 10^4 cells/mL in complete HMI9 medium and 6uL was dispensed to all wells containing compounds using a Multidrop Combi dispenser. 6uL of HMI9 media with 0.4% DMSO were dispensed to control columns. Plates were incubated for 24 h at 37C, 5% CO2 then tempered for 10 min at room temperature. ATP content was quantified by adding 4 uL of CellTiter-Glo Reagent (Promega) according to the manufacturer's instructions. Luminescence was measured using a ViewLux.; type: functional, organism-based; conditions: Lister 427, CASY
# [8] = GSK_TCAKS: pIC50 HepG2 human cell line viability assay using luminiscence. […] Seeding density was checked to ensure that new mono-layers were not more than 50% confluent at the time of harvesting. Cell suspension was added to 500 mL of the same medium at a final density of 1.2 * 10^5 cells/mL. This cell suspension was dispensed (25 uL, 3000 cells per well) into 384-well clear-bottom plates using a Multidrop Combi dispenser. Prior to addition of the cell suspension, the screening compounds (250 nL) were pre-dispensed into the plates with an Echo liquid handler. Plates were incubated for 48 h at 37C, 5% CO2. After incubation, plates equilibrated at room temperature for 30 min before proceeding to develop the luminescent signal. The signal developer, CellTiter-Glo Reagent, was allowed to equilibrate at room temperature for 30 min and added to the plates (25uL per well) using a Multidrop Combi dispenser. Plates were left for 10 min at room temperature for stabilization and then read using a ViewLux.; type: toxicity, cell-based
# [9] = target: Sterol 14-alpha demethylase (Trypanosoma cruzi (strain CL Brener), UniProt Q7Z1V1); test: GSK_TCAKS: pIC50 CYP51 from Trypanosoma cruzi.; type: functional
# Chain of Sterol 14-alpha demethylase (Q7Z1V1 whole entry): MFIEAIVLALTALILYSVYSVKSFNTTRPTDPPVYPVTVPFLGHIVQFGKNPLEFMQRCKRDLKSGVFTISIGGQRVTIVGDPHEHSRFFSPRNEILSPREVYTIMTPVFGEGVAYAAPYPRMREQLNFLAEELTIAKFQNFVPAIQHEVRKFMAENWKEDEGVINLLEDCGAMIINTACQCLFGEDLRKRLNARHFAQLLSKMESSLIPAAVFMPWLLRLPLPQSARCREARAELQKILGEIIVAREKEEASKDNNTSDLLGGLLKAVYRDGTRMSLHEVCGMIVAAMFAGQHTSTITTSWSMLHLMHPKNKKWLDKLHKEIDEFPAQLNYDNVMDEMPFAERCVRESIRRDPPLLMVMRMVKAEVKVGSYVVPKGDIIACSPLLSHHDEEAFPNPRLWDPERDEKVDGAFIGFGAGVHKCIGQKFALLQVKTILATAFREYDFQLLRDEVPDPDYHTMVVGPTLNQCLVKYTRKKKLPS
# Leishmania donovani [10] = test: GSK_TCAKS: pIC50 Leishmania donovani viability assay using fluorescence intensity. Assay plates (1536-well) were prepared by adding 30nL per well of compound. For single shot assay, the final compound concentration was 5uM. […] Briefly, eGFP LdBOB axenic amastigotes were harvested, fixed and counted in a CASY cell counter (Roche-Applied Science). A final concentration of 1.5 * 10^5 cells per well were prepared in amastigote media containing 500 U/mL penicillin/streptomycin (Invitrogen) and 6uL was dispensed to each experimental well using a Multidrop Combi dispenser (Thermo Scientific). 6uL of assay media was dispensed to control columns used as reference for 100% compound response. Following incubation for 72 h at 37C, 5% CO2, 2 uL of resazurin was added to each well at a final concentration of 0.5 mM in phosphate buffered saline (PBS) with IGEPAL (Sigma-Aldrich), 0.05% (v/v).; type: functional, organism-based
# Leishmania donovani [11] = test: as §2, with “THP-1 Host” for “Infected”, “THP-1 cell count” for “Percent of infected macrophage cells”; type: functional, organism-based, Homo sapiens
# Trypanosoma cruzi [12] = test: as §1, with “H2C9” for “Trypanosoma cruzi”, “H9c2 Host Cardiomyocytes.” for “Infected Cells.”, “Number” for “percentage”, “H9c2 Host Cardiomyocytes nuclei to determine drug-related cytotoxicity.” for “infected cells per well as a second infection marker.”; type: functional, organism-based, Rattus norvegicus; conditions: H9c2, 4 h
IC50 [9],IC50 (Leishmania donovani [11]),Compound,IC50 (Trypanosoma cruzi [1]),IC50 (Trypanosoma cruzi [2]),IC50 (Trypanosoma cruzi [3]),IC50 (Leishmania donovani [4]),IC50 (Leishmania donovani [5]),IC50 [6],IC50 [7],IC50 at 48 h [8],IC50 (Leishmania donovani [10]),IC50 (Trypanosoma cruzi [12])
25.1 µM,6.31 µM,Cc1nn(-c2nc3ccccc3[nH]2)c2c1C(c1ccc(O)cc1)CC(=O)N2 (centres undefined),,,,1 µM,0.501 µM,,,25.1 µM,0.794 µM,
39.8 µM,12.6 µM,C=CC[C@@H]1CC=C[C@@H](C)N1C(=O)CCc1nnc(-c2ccc3c(c2)OCO3)o1,,,,7.94 µM,3.16 µM,,,> 100 µM,6.31 µM,
> 100 µM,> 50.1 µM,O=C1c2cnc(N3CCCC3)nc2CN1c1ccc2c(c1)OCO2,2.51 µM,,,10 µM,6.31 µM,,,> 100 µM,6.31 µM,
> 100 µM,15.8 µM,COc1ccccc1C(=O)Nc1nnc(-c2ccc3c(c2)OCO3)s1,2.51 µM,,,1 µM,0.631 µM,,,> 100 µM,1 µM,
> 100 µM,20 µM,Oc1c(-c2nnc(Cc3ccc(F)cc3)[nH]2)ncc2cccnc12,0.158 µM,,,1 µM,1 µM,,,25.1 µM,0.126 µM,
31.6 µM,20 µM,Oc1c(-c2nnc(Cc3ccc(Cl)cc3)[nH]2)ncc2cccnc12,,,,1.26 µM,1 µM,,,39.8 µM,0.251 µM,
> 100 µM,20 µM,COc1ccc(Cc2nnc(-c3ncc4cccnc4c3O)[nH]2)cc1OC,1.26 µM,,,3.16 µM,2.51 µM,,,50.1 µM,0.316 µM,
> 100 µM,20 µM,c1ccc(-c2nc(NC3CCCCC3)cc(C3CC3)n2)nc1,,,,3.98 µM,3.16 µM,,,39.8 µM,0.794 µM,

Compound,IC50 [9],IC50 (Leishmania donovani [11]),IC50 (Trypanosoma cruzi [1]),IC50 (Trypanosoma cruzi [2]),IC50 (Trypanosoma cruzi [3]),IC50 (Leishmania donovani [4]),IC50 (Leishmania donovani [5]),IC50 [6],IC50 [7],IC50 at 48 h [8],IC50 (Leishmania donovani [10]),IC50 (Trypanosoma cruzi [12])
CNS(=O)(=O)c1ccccc1Nc1nc(Nc2ccnn2C)ncc1Cl,31.6 µM,,0.398 µM,1 µM,0.631 µM,0.631 µM,0.398 µM,0.0631 µM,0.1 µM,50.1 µM,,
CS(=O)(=O)c1ccc(Nc2nccc(-c3cnn4ncccc34)n2)cc1,15.8 µM,,2 µM,25.1 µM,1 µM,2 µM,1 µM,0.158 µM,0.2 µM,15.8 µM,0.794 µM,5.01 µM
N=C(N)Nc1nc(-c2ccc(NC(=N)NCCN3CCCC3)cc2)cs1,,> 50.1 µM,> 50.1 µM,> 50.1 µM,> 50.1 µM,> 50.1 µM,> 50.1 µM,0.0398 µM,0.1 µM,> 100 µM,> 50.1 µM,> 50.1 µM
[O-][s+]1nc(NCCCN(Cc2ccc(F)cc2)c2ccccn2)c(NCc2ccncc2)n1 (centres undefined),,25.1 µM,31.6 µM,50.1 µM,39.8 µM,> 50.1 µM,25.1 µM,0.316 µM,0.501 µM,79.4 µM,> 50.1 µM,> 50.1 µM
